From patent publication US11472791B2 (Incyte Corporation, priority 2019, dated 2022)

Target: CDK2/Cyclin E1 (Homo sapiens (Human), UniProt P24941)
Test: CDK2/Cyclin E1 HTRF enzyme activity assay
Type: biochemical
Details: 1 mM ATP
Experimental: Assays are conducted in white 384-well polystyrene plates in a final reaction volume of 8 μL. […] HTRF signals are read after 1 hour at room temperature on a PHERAstar FS plate reader (BMG Labtech). Data is analyzed with IDBS XLFit and GraphPad Prism 5.0 software using a three or four parameter dose response curve to determine IC50 for each compound.

| IC50 | SMILES |
| --- | --- |
| < 50 nM | CO[C@H]1CC[C@H](n2cc(-c3nc(N[C@H]4CCN(S(=O)(=O)c5cn(C)cn5)C[C@H]4F)ncc3C(F)(F)F)cn2)CC1 [Example 43, N-((3R,4S)-3-Fluoro-1-((1-methyl-1H-imidazol-4-yl)sulfonyl)piperidin-4-yl)-4-(1-((trans)-4-methoxycyclohexyl)-1H-pyrazol-4-yl)-5-(trifluoromethyl)pyrimidin-2-amine] |
| < 50 nM | CC(C)S(=O)(=O)N1CCC(Nc2ncc(C(F)(F)F)c(-c3cnn([C@H]4C[C@@](C)(N)C4)c3)n2)CC1 [Example 45, 4-(1-((1s,3s)-3-Amino-3-methylcyclobutyl)-1H-pyrazol-4-yl)-N-(1-(isopropylsulfonyl)piperidin-4-yl)-5-(trifluoromethyl)pyrimidin-2-amine] |
| < 50 nM | C[C@]1(N)C[C@@H](n2cc(-c3nc(NC4CCN(S(=O)(=O)C5CCC5)CC4)ncc3C(F)(F)F)cn2)C1 [Example 46, 4-(1-((1s,3s)-3-Amino-3-methylcyclobutyl)-1H-pyrazol-4-yl)-N-(1-(cyclobutylsulfonyl)piperidin-4-yl)-5-(trifluoromethyl)pyrimidin-2-amine] |
| < 50 nM | C[C@@H]1CN(S(=O)(=O)C2CC2)CC[C@@H]1Nc1ncc(C(F)(F)F)c(-c2cnn([C@H]3C[C@@](C)(N)C3)c2)n1 [Example 47, 4-(1-((1s,3r)-3-Amino-3-methylcyclobutyl)-1H-pyrazol-4-yl)-N-((3R,4S)-1-(cyclopropylsulfonyl)-3-methylpiperidin-4-yl)-5-(trifluoromethyl)pyrimidin-2-amine] |
| < 50 nM | C[C@]1(N)C[C@@H](n2cc(-c3nc(N[C@H]4CCN(S(=O)(=O)C5CCC5)C[C@H]4F)ncc3C(F)(F)F)cn2)C1 [Example 48, 4-(1-((1s,3r)-3-Amino-3-methylcyclobutyl)-1H-pyrazol-4-yl)-N-((3R,4S)-1-(cyclobutylsulfonyl)-3-fluoropiperidin-4-yl)-5-(trifluoromethyl)pyrimidin-2-amine] |
| < 50 nM | CN[C@H]1C[C@@H](n2cc(-c3nc(NC4CCN(S(=O)(=O)c5ccccn5)CC4)ncc3C(F)(F)F)cn2)C1 [Example 49, 4-(1-((1s,3s)-3-(Methylamino)cyclobutyl)-1H-pyrazol-4-yl)-N-(1-(pyridin-2-ylsulfonyl)piperidin-4-yl)-5-(trifluoromethyl)pyrimidin-2-amine] |
| < 50 nM | CN[C@H]1C[C@H](n2cc(-c3nc(NC4CCN(S(=O)(=O)c5ccccn5)CC4)ncc3C(F)(F)F)cn2)C1 [Example 50, 4-(1-((1r,3r)-3-(Methylamino)cyclobutyl)-1H-pyrazol-4-yl)-N-(1-(pyridin-2-ylsulfonyl)piperidin-4-yl)-5-(trifluoromethyl)pyrimidin-2-amine] |
| < 50 nM | CC(C)(O)Cn1cc(-c2nc(NC3CCN(S(C)(=O)=O)CC3)ncc2C(F)(F)F)cn1 [Example 52, 2-Methyl-1-(4-(2-((1-(methylsulfonyl)piperidin-4-yl)amino)-5-(trifluoromethyl)pyrimidin-4-yl)-1H-pyrazol-1-yl)propan-2-ol] |
| < 50 nM | CCS(=O)(=O)N1CCC(Nc2ncc(C(F)(F)F)c(-c3cnn(CC(C)(C)O)c3)n2)CC1 [Example 53, 1-(4-(2-((1-(Ethylsulfonyl)piperidin-4-yl)amino)-5-(trifluoromethyl)pyrimidin-4-yl)-1H-pyrazol-1-yl)-2-methylpropan-2-ol] |
| < 50 nM | CC(C)(O)Cn1cc(-c2nc(NC3CCN(S(=O)(=O)c4ccccn4)CC3)ncc2C#N)cn1 [Example 55, 4-(1-(2-Hydroxy-2-methylpropyl)-1H-pyrazol-4-yl)-2-((1-(pyridin-2-ylsulfonyl)piperidin-4-yl)amino)pyrimidine-5-carbonitrile] |
| < 50 nM | CC(C)(O)Cn1cc(-c2nc(NC3CCN(S(=O)(=O)C4CC4)CC3)ncc2Cl)cn1 [Example 56, 1-(4-(5-Chloro-2-((1-(cyclopropylsulfonyl)piperidin-4-yl)amino)pyrimidin-4-yl)-1H-pyrazol-1-yl)-2-methylpropan-2-ol] |
| < 50 nM | CC(C)(O)Cn1cc(-c2nc(N[C@H]3CCN(S(=O)(=O)C4CC4)C[C@H]3F)ncc2C(F)(F)F)cn1 [Example 57, 1-(4-(2-(((3R,4S)-1-(Cyclopropylsulfonyl)-3-fluoropiperidin-4-yl)amino)-5-(trifluoromethyl)pyrimidin-4-yl)-1H-pyrazol-1-yl)-2-methylpropan-2-ol] |
| < 50 nM | CC(C)(O)Cn1cc(-c2nc(N[C@H]3CCN(S(C)(=O)=O)C[C@H]3F)ncc2C(F)(F)F)cn1 [Example 58, 1-(4-(2-(((3R,4S)-3-Fluoro-1-(methylsulfonyl)piperidin-4-yl)amino)-5-(trifluoromethyl)pyrimidin-4-yl)-1H-pyrazol-1-yl)-2-methylpropan-2-ol] |
| < 50 nM | C[C@@H]1CN(S(=O)(=O)C2CC2)CC[C@@H]1Nc1ncc(C(F)(F)F)c(-c2cnn(CC(C)(C)O)c2)n1 [Example 59, 1-(4-(2-(((3R,4S)-1-(Cyclopropylsulfonyl)-3-methylpiperidin-4-yl)amino)-5-(trifluoromethyl)pyrimidin-4-yl)-1H-pyrazol-1-yl)-2-methylpropan-2-ol] |
| < 50 nM | C[C@@H]1CN(S(=O)(=O)c2cnn(C)c2)CC[C@@H]1Nc1ncc(C(F)(F)F)c(-c2cnn(CC(C)(C)O)c2)n1 [Example 60, 2-Methyl-1-(4-(2-(((3R,4S)-3-methyl-1-((1-methyl-1H-pyrazol-4-yl)sulfonyl)piperidin-4-yl)amino)-5-(trifluoromethyl)pyrimidin-4-yl)-1H-pyrazol-1-yl)propan-2-ol] |
| < 50 nM | C[C@@H]1CN(S(=O)(=O)c2cn(C)cn2)CC[C@@H]1Nc1ncc(C(F)(F)F)c(-c2cnn(CC(C)(C)O)c2)n1 [Example 61, 2-Methyl-1-(4-(2-(((3R,4S)-3-methyl-1-((1-methyl-1H-imidazol-4-yl)sulfonyl)piperidin-4-yl)amino)-5-(trifluoromethyl)pyrimidin-4-yl)-1H-pyrazol-1-yl)propan-2-ol] |
| < 50 nM | C[C@@H]1CN(S(=O)(=O)c2ccccn2)CC[C@@H]1Nc1ncc(C(F)(F)F)c(-c2cnn(CC(C)(C)O)c2)n1 [Example 62, 2-Methyl-1-(4-(2-(((3R,4S)-3-methyl-1-(pyridin-2-ylsulfonyl)piperidin-4-yl)amino)-5-(trifluoromethyl)pyrimidin-4-yl)-1H-pyrazol-1-yl)propan-2-ol] |
| < 50 nM | CC(C)(O)Cn1cc(-c2nc(NC3CCN(S(=O)(=O)CCCN4CCOCC4)CC3)ncc2C(F)(F)F)cn1 [Example 63, 2-Methyl-1-(4-(2-((1-((3-morpholinopropyl)sulfonyl)piperidin-4-yl)amino)-5-(trifluoromethyl)pyrimidin-4-yl)-1H-pyrazol-1-yl)propan-2-ol] |
| < 50 nM | CCN(CC)CCCS(=O)(=O)N1CCC(Nc2ncc(C(F)(F)F)c(-c3cnn(CC(C)(C)O)c3)n2)CC1 [Example 64, 1-(4-(2-((1-((3-(Diethylamino)propyl)sulfonyl)piperidin-4-yl)amino)-5-(trifluoromethyl)pyrimidin-4-yl)-1H-pyrazol-1-yl)-2-methylpropan-2-ol] |
| < 50 nM | CC(C)(O)Cn1cc(-c2nc(NC3CCN(S(=O)(=O)CCCN4CCCC4)CC3)ncc2C(F)(F)F)cn1 [Example 66, 2-Methyl-1-(4-(2-((1-((3-(pyrrolidin-1-yl)propyl)sulfonyl)piperidin-4-yl)amino)-5-(trifluoromethyl)pyrimidin-4-yl)-1H-pyrazol-1-yl)propan-2-ol] |
| < 50 nM | CC(C)(O)Cn1cc(-c2nc(NC3CCN(S(=O)(=O)CCCN4CCCCC4)CC3)ncc2C(F)(F)F)cn1 [Example 67, 2-Methyl-1-(4-(2-((1-((3-(piperidin-1-yl)propyl)sulfonyl)piperidin-4-yl)amino)-5-(trifluoromethyl)pyrimidin-4-yl)-1H-pyrazol-1-yl)propan-2-ol] |
| < 50 nM | CN1CCN(CCCS(=O)(=O)N2CCC(Nc3ncc(C(F)(F)F)c(-c4cnn(CC(C)(C)O)c4)n3)CC2)CC1 [Example 68, 2-Methyl-1-(4-(2-((1-((3-(4-methylpiperazin-1-yl)propyl)sulfonyl)piperidin-4-yl)amino)-5-(trifluoromethyl)pyrimidin-4-yl)-1H-pyrazol-1-yl)propan-2-ol] |
| < 50 nM | CC(C)(O)Cn1cc(-c2nc(NC3CCN(S(=O)(=O)CCCN4CCNC(=O)C4)CC3)ncc2C(F)(F)F)cn1 [Example 69, 4-(3-((4-((4-(1-(2-Hydroxy-2-methylpropyl)-1H-pyrazol-4-yl)-5-(trifluoromethyl)pyrimidin-2-yl)amino)piperidin-1-yl)sulfonyl)propyl)piperazin-2-one] |
| < 50 nM | CN1CCN(CCCS(=O)(=O)N2CCC(Nc3ncc(C(F)(F)F)c(-c4cnn(CC(C)(C)O)c4)n3)CC2)CC1=O [Example 70, 4-(3-((4-((4-(1-(2-Hydroxy-2-methylpropyl)-1H-pyrazol-4-yl)-5-(trifluoromethyl)pyrimidin-2-yl)amino)piperidin-1-yl)sulfonyl)propyl)-1-methylpiperazin-2-one] |
| < 50 nM | C[C@H]1COCCN1CCCS(=O)(=O)N1CCC(Nc2ncc(C(F)(F)F)c(-c3cnn(CC(C)(C)O)c3)n2)CC1 [Example 71, (S)-2-Methyl-1-(4-(2-((1-((3-(3-methylmorpholino)propyl)sulfonyl)piperidin-4-yl)amino)-5-(trifluoromethyl)pyrimidin-4-yl)-1H-pyrazol-1-yl)propan-2-ol] |
| < 50 nM | C[C@@H]1COCCN1CCCS(=O)(=O)N1CCC(Nc2ncc(C(F)(F)F)c(-c3cnn(CC(C)(C)O)c3)n2)CC1 [Example 72, (R)-2-Methyl-1-(4-(2-((1-((3-(3-methylmorpholino)propyl)sulfonyl)piperidin-4-yl)amino)-5-(trifluoromethyl)pyrimidin-4-yl)-1H-pyrazol-1-yl)propan-2-ol] |
| < 50 nM | CC(C)(O)Cn1cc(-c2nc(NC3CCN(S(=O)(=O)CCCN4CCOCC45CC5)CC3)ncc2C(F)(F)F)cn1 [Example 73, 1-(4-(2-((1-((3-(7-Oxa-4-azaspiro[2.5]octan-4-yl)propyl)sulfonyl)piperidin-4-yl)amino)-5-(trifluoromethyl)pyrimidin-4-yl)-1H-pyrazol-1-yl)-2-methylpropan-2-ol] |
